Data from ChEMBL document CHEMBL4316596, “Antimicrobial Peptides with High Proteolytic Resistance for Combating Gram-Negative Bacteria” (J Med Chem, 2019).
In brackets after ≈: the same amount, converted by molar mass. Activity calls are given as the source filed them. The calls are words filed in the database; no cut-off is given here.

Experiments:
Escherichia coli [1] = assay: Antimicrobial activity against Escherichia coli UB1005 after 24 hrs by NCCLS-protocol based assay; assay type: functional; conditions: UB1005, 24 h
Escherichia coli [2] = assay: Antimicrobial activity against Escherichia coli 078 after 24 hrs by NCCLS-protocol based assay; assay type: functional; conditions: Escherichia coli, 078, 24 h
Escherichia coli [3] = assay: Antimicrobial activity against Escherichia coli K88 after 24 hrs by NCCLS-protocol based assay; assay type: functional; conditions: K88, 24 h
Pseudomonas aeruginosa [4] = assay: Antimicrobial activity against Pseudomonas aeruginosa ATCC 27853 after 24 hrs by NCCLS-protocol based assay; assay type: functional; conditions: ATCC 27853, 24 h
Pseudomonas aeruginosa [5] = assay: Antimicrobial activity against Pseudomonas aeruginosa CICC 21630 clinical isolates after 24 hrs by NCCLS-protocol based assay; assay type: functional; conditions: CICC 21630, 24 h
Klebsiella pneumoniae [6] = assay: Antimicrobial activity against Klebsiella pneumoniae after 24 hrs by NCCLS-protocol based assay; assay type: functional
RAW264.7 = assay: Cytotoxicity against mouse RAW264.7 cells assessed as cell death after 18 to 24 hrs by MTT assay; assay type: cell-based
[7] = Selectivity ratio of HC10 for human RBC to geometric mean of the peptide MBC for bacteria
Escherichia coli [8] = assay: Bactericidal activity against Escherichia coli ATCC 25922 incubated for 4 hrs followed by culture spread on agar plates and cultured overnight in presence of KCl; assay type: functional; conditions: ATCC 25922, 4 h, read-out: MBC>99.9
Escherichia coli [9] = assay: Bactericidal activity against Escherichia coli ATCC 25922 incubated for 4 hrs followed by culture spread on agar plates and cultured overnight in presence of NH4Cl; assay type: functional; conditions: ATCC 25922, 4 h, read-out: MBC>99.9
Escherichia coli [10] = assay: Bactericidal activity against Escherichia coli ATCC 25922 incubated for 4 hrs followed by culture spread on agar plates and cultured overnight in presence of 50% serum albumin; assay type: functional; conditions: ATCC 25922, 4 h, read-out: MBC>99.9
Escherichia coli [11] = assay: Bactericidal activity against Escherichia coli ATCC 25922 incubated for 4 hrs followed by culture spread on agar plates and cultured overnight in presence of 25% serum albumin; assay type: functional; conditions: ATCC 25922, 4 h, read-out: MBC>99.9
Escherichia coli [12] = assay: Bactericidal activity against Escherichia coli ATCC 25922 incubated for 4 hrs followed by culture spread on agar plates and cultured overnight in presence of 12.5% serum albumin; assay type: functional; conditions: ATCC 25922, 4 h, read-out: MBC>99.9
Escherichia coli [13] = assay: Bactericidal activity against Escherichia coli ATCC 25922 incubated for 4 hrs followed by culture spread on agar plates and cultured overnight in presence of 2 mg/ml trypsin; assay type: functional; conditions: ATCC 25922, 4 h, read-out: MBC>99.9
Escherichia coli [14] = assay: Bactericidal activity against Escherichia coli ATCC 25922 incubated for 4 hrs followed by culture spread on agar plates and cultured overnight in presence of 0.125 mg/ml trypsin; assay type: functional; conditions: ATCC 25922, 4 h, read-out: MBC>99.9
Escherichia coli [15] = assay: Bactericidal activity against Escherichia coli ATCC 25922 incubated for 4 hrs followed by culture spread on agar plates and cultured overnight in presence of 2 mg/ml chymotrypsin; assay type: functional; conditions: ATCC 25922, 4 h, read-out: MBC>99.9
Escherichia coli [16] = assay: Bactericidal activity against Escherichia coli ATCC 25922 incubated for 4 hrs followed by culture spread on agar plates and cultured overnight in presence of 0.5 mg/ml chymotrypsin; assay type: functional; conditions: ATCC 25922, 4 h, read-out: MBC>99.9
Escherichia coli [17] = assay: Bactericidal activity against Escherichia coli ATCC 25922 incubated for 4 hrs followed by culture spread on agar plates and cultured overnight in presence of 0.25 mg/ml chymotrypsin; assay type: functional; conditions: ATCC 25922, 4 h, read-out: MBC>99.9
Escherichia coli [18] = assay: Bactericidal activity against Escherichia coli ATCC 25922 incubated for 4 hrs followed by culture spread on agar plates and cultured overnight in presence of 0.125 mg/ml chymotrypsin; assay type: functional; conditions: ATCC 25922, 4 h, read-out: MBC>99.9
Escherichia coli [19] = assay: Induction of outer membrane permeabilization in Escherichia coli ATCC 25922 at 1 uM by NPN-dye based assay relative to control
Escherichia coli [20] = assay: Induction of cytoplasmic membrane depolarization in Escherichia coli ATCC 25922 at 2 uM up to 5000 secs by DiSC3-5 dye-based fluorescence spectrophotometric method; assay type: functional, organism-based
Escherichia coli [21] = assay: Bactericidal activity against Escherichia coli UB1005 incubated for 4 hrs followed by culture spread on agar plates and cultured overnight; assay type: functional; conditions: UB1005, 4 h, read-out: MBC>99.9
Escherichia coli [22] = assay: Bactericidal activity against Escherichia coli 078 incubated for 4 hrs followed by culture spread on agar plates and cultured overnight; assay type: functional; conditions: Escherichia coli, 078, 4 h; read-out: MBC>99.9
Escherichia coli [23] = assay: Bactericidal activity against Escherichia coli K99 incubated for 4 hrs followed by culture spread on agar plates and cultured overnight; assay type: functional; conditions: K99, 4 h, read-out: MBC>99.9
Pseudomonas aeruginosa [24] = assay: Bactericidal activity against Pseudomonas aeruginosa 26305 clinical isolates incubated for 4 hrs followed by culture spread on agar plates and cultured overnight; assay type: functional; conditions: Pseudomonas aeruginosa, 26305, 4 h; read-out: MBC>99.9
Salmonella typhimurium = assay: Bactericidal activity against Salmonella typhimurium ATCC 14028 incubated for 4 hrs followed by culture spread on agar plates and cultured overnight; assay type: functional, Salmonella enterica subsp. enterica serovar Typhimurium; conditions: Salmonella enterica, ATCC 14028, 4 h; read-out: MBC>99.9
[25] = Bactericidal activity against Salmonella pullorum C7913 incubated for 4 hrs followed by culture spread on agar plates and cultured overnight; assay type: functional, Salmonella enterica subsp. enterica serovar Pullorum; conditions: Salmonella enterica, C7913, 4 h; read-out: MBC>99.9
Acinetobacter baumannii = assay: Bactericidal activity against Acinetobacter baumannii incubated for 4 hrs followed by culture spread on agar plates and cultured overnight; assay type: functional; conditions: read-out: MBC>99.9
Klebsiella pneumoniae [26] = assay: Bactericidal activity against Klebsiella pneumoniae incubated for 4 hrs followed by culture spread on agar plates and cultured overnight; assay type: functional; conditions: read-out: MBC>99.9
Escherichia coli [27] = assay: Induction of cytoplasmic membrane depolarization in Escherichia coli ATCC 25922 assessed as induction cytoplasmic ONPG release at 2 to 16 uM up to 120 mins by DiSC3-5 dye-based fluorescence spectrophotometric method; assay type: functional, organism-based
[28] = Hemolytic activity against human RBC at 1 to 128 uM after 1 hr; assay type: ADME, cell-based, Erythrocyte; conditions: red blood cells (erythrocytes), read-out: Activity
Trypsin = Trypsin (Homo sapiens, UniProt P07477+P07478+P35030); assay: Stability of the compound assessed as trypsin (unknown origin)-mediated compound hydrolysis after 8 hrs by SDS-PAGE analysis; assay type: ADME, protein assay
Chymotrypsin [29] = molecular target: T1, Chymotrypsin (Homo sapiens, UniProt Q99895+P17538+P40313+Q6GPI1); assay: Stability of the compound assessed as chymotrypsin (unknown origin)-mediated compound hydrolysis after 8 hrs by SDS-PAGE analysis; assay type: ADME, protein assay
[30] = Stability of the compound assessed as pepsin (unknown origin)-mediated compound hydrolysis after 8 hrs by SDS-PAGE analysis; assay type: ADME; conditions: human
[31] = Stability of the compound assessed as Tritirachium album proteinase K-mediated compound hydrolysis after 8 hrs by SDS-PAGE analysis; assay type: ADME; conditions: parengyodontium album
[32] = Stability of the compound assessed as Tritirachium album proteinase K-mediated compound hydrolysis by measuring compound helicity by CD spectroscopy; assay type: ADME; conditions: parengyodontium album
Escherichia coli [33] = assay: Antibacterial activity against Escherichia coli ATCC 25922 infected in ICR mouse assessed as mouse survival at 5 mg/kg, ip dosed at 0.5, 2, 4 and 8 hrs post-infection; assay type: functional; conditions: ATCC 25922, ip
Chymotrypsin [34] = molecular target: T1, Chymotrypsin; assay: Stability of the compound assessed as chymotrypsin (unknown origin)-mediated compound hydrolysis after 4 hrs by SDS-PAGE analysis; assay type: ADME, protein assay
Chymotrypsin [35] = molecular target: T1, Chymotrypsin; assay: Stability of the compound assessed as chymotrypsin (unknown origin)-mediated compound hydrolysis by measuring compound helicity by CD spectroscopy; assay type: ADME, protein assay
[36] = Stability of the compound assessed as pepsin (unknown origin)-mediated compound hydrolysis by measuring compound helicity by CD spectroscopy; assay type: ADME; conditions: human

Molecule	MIC95 (Escherichia coli [1])	MIC95 (Escherichia coli [2])	MIC95 (Escherichia coli [3])	MIC95 (Pseudomonas aeruginosa [4])	MIC95 (Pseudomonas aeruginosa [5])	MIC95 (Klebsiella pneumoniae [6])	IC50 (RAW264.7)	Ratio [7]	MBC (Escherichia coli [8])	MBC (Escherichia coli [9])	MBC (Escherichia coli [10])	MBC (Escherichia coli [11])	MBC (Escherichia coli [12])	MBC (Escherichia coli [13])	MBC (Escherichia coli [14])	MBC (Escherichia coli [15])	MBC (Escherichia coli [16])	MBC (Escherichia coli [17])	MBC (Escherichia coli [18])	MBC (Escherichia coli [21])	other results
CC[C@H](C)[C@H](NC(=O)CN)C(=O)NCC(=O)N[C@@H](C)C(=O)N[C@H](C(=O)N[C@@H](CC(C)C)C(=O)N[C@@H](CCCCN)C(=O)N[C@H](C(=O)N[C@@H](CC(C)C)C(=O)N[C@H](C(=O)N[C@H](C(=O)NCC(=O)N[C@@H](CC(C)C)C(=O)N1CCC[C@H]1C(=O)N[C@@H](C)C(=O)N[C@@H](CC(C)C)C(=O)N[C@H](C(=O)N[C@@H](CO)C(=O)N[C@@H](Cc1c[nH]c2ccccc12)C(=O)N[C@H](C(=O)N[C@@H](CCCCN)C(=O)N[C@@H](CCCNC(=N)N)C(=O)N[C@@H](CCCCN)C(=O)N[C@@H](CCCNC(=N)N)C(=O)N[C@@H](CCC(N)=O)C(=O)N[C@@H](CCC(N)=O)C(N)=O)[C@@H](C)CC)[C@@H](C)CC)[C@@H](C)O)[C@@H](C)O)C(C)C)C(C)C [MELITTIN]	2 µM (≈ 5.69 µg/mL)	0.5 µM (≈ 1.42 µg/mL)	1 µM (≈ 2.85 µg/mL)	2 µM (≈ 5.69 µg/mL)	4 µM (≈ 11.4 µg/mL)	2 µM (≈ 5.69 µg/mL)	2.09 µM	0.92	2 µM	2 µM	64 µM	64 µM	32 µM	> 64 µM	2 µM	> 64 µM	> 64 µM	4 µM	2 µM	2 µM (≈ 5.69 µg/mL)	Activity (Escherichia coli [19]): Active; Activity (Escherichia coli [20]): Active; MBC (Escherichia coli [22]): 1 µM (≈ 2.85 µg/mL); MBC (Escherichia coli [23]): 2 µM (≈ 5.69 µg/mL); MBC (Pseudomonas aeruginosa [24]): 2 µM (≈ 5.69 µg/mL); MBC (Salmonella typhimurium): 2 µM (≈ 5.69 µg/mL); MBC [25]: 4 µM (≈ 11.4 µg/mL); MBC (Acinetobacter baumannii): 1 µM (≈ 2.85 µg/mL); MBC (Klebsiella pneumoniae [26]): 2 µM (≈ 5.69 µg/mL); Activity (Escherichia coli [27]): Active
H-IKPIIKPIIKPIIKPIIKPIIKPIIKPI-NH2	4 µM	16 µM	2 µM	> 64 µM	> 64 µM	16 µM	2750 µM	7.03	32 µM	16 µM	> 128 µM	> 128 µM	> 128 µM	16 µM	16 µM	16 µM	16 µM	16 µM	16 µM	4 µM	MBC (Escherichia coli [22]): 16 µM; MBC (Escherichia coli [23]): 4 µM; MBC (Pseudomonas aeruginosa [24]): > 64 µM; MBC (Salmonella typhimurium): > 64 µM; MBC [25]: > 64 µM; MBC (Acinetobacter baumannii): 2 µM; MBC (Klebsiella pneumoniae [26]): 64 µM; hemolysis at 1 h, up to 128 µM [28]: < 5%; Stability (Trypsin): Stable; Stability (Chymotrypsin [29]): Stable; Stability [30]: Unstable; Stability [31]: Stable; Stability [32]: Unstable
H-LKPLLKPLLKPLLKPLLKPLLKPLLKPL-NH2	1 µM	2 µM	0.5 µM	2 µM	2 µM	1 µM	1.56 µM	94.5	1 µM	1 µM	64 µM	8 µM	2 µM	1 µM	1 µM	1 µM	1 µM	1 µM	1 µM	2 µM	survival at 5 mg/kg (Escherichia coli [33]): 37.5%; MBC (Escherichia coli [22]): 2 µM; MBC (Escherichia coli [23]): 2 µM; MBC (Pseudomonas aeruginosa [24]): 16 µM; MBC (Salmonella typhimurium): 2 µM; MBC [25]: 4 µM; MBC (Acinetobacter baumannii): 1 µM; MBC (Klebsiella pneumoniae [26]): 2 µM; Stability (Trypsin): Stable; Stability (Chymotrypsin [34]): Unstable; Stability [30]: Unstable; Stability (Chymotrypsin [35]): Unstable; Stability [36]: Unstable
H-LRPLLRPLLRPLLRPLLRPLLRPLLRPL-NH2	2 µM	1 µM	1 µM	1 µM	2 µM	2 µM	2.29 µM	24.7	2 µM	2 µM	16 µM	8 µM	4 µM	2 µM	2 µM	> 64 µM	2 µM	2 µM	2 µM	2 µM	survival at 5 mg/kg (Escherichia coli [33]): 37.5%; MBC (Escherichia coli [22]): 1 µM; MBC (Escherichia coli [23]): 2 µM; MBC (Pseudomonas aeruginosa [24]): 8 µM; MBC (Salmonella typhimurium): 2 µM; MBC [25]: 2 µM; MBC (Acinetobacter baumannii): 1 µM; MBC (Klebsiella pneumoniae [26]): 4 µM; Stability (Trypsin): Stable; Stability (Chymotrypsin [34]): Unstable; Stability [30]: Unstable; Stability (Chymotrypsin [35]): Unstable; Stability [36]: Unstable
